Data on 1 molecule can be found in patent publication US12589087B2, “Enantiomer selective action on neurotransmission” (The Board of Trustees of the Leland Stanford Junior …, priority 2021, dated 2026).

In this test the test system is MPTP model of PD. As to the kind of experiment: MPTP model of PD, fine motor kinematic score. The conditions noted are these: 50 mg/kg/d IP, days −5 to 14. It is filed as in vivo, mouse. As for the experimental part: Five groups of mice were treated with 40 mg/kg/d MPTP IP on days 1 and 2 and two concentrations of two test agents IP from days −5 to day 14 (FIG. 22). One group received vehicle, two groups received 5 or 50 mg/kg/d S-2MeGlu, and two groups received 5 or 50 mg/kg/d R-4APA. […] The high-precision fine motor kinematic protocol quantifies over 100 indices of gait and balance and integrates them into an overall kinematic score; higher score indicates greater impairment. […] Mice were sacrificed on day 15 and striatal dopamine as well as its major metabolites were quantified by HPLC with electrochemical detection.

As to `C[C@](N)(CCC(=O)O)C(=O)O` [(S)-2MeGlu, (S)-2-methylglutamic acid], the “rescue of motor deficit from MPTP (overall kinematic score)” value is “significantly rescued the motor deficit from MPTP”.
